# Data taken from patent US8106075B2, “Insecticides” (Syngenta Crop Protection, Inc., priority 2004, dated 2012).
# How the values were obtained:
# [1] = tested on: Spodoptera littoralis; assay: B10a: Systemic Insecticide Test for Spodoptera littoralis (cotton leafworm); format: in vivo; details: systemic via maize seedlings, 1st instar larvae
# Method: […] Seedlings are allowed to grow for six days. Subsequently leaves are cut and placed in a Petri dish (5 cm diameter), inoculated with twelve to fifteen 1st instar S. littoralis larvae and incubated for four days in a growth chamber (25° C., 50% r.h., 18:6 L:D photo period). Number of alive insects are counted and percentage of dead calculated. Tests were conducted with one replicate.
# [2] = tested on: Heliothis virescens; assay: B10b: Insecticide Test for Heliothis virescens (tobacco budworm); format: in vivo; details: for Percent larvae showing growth reduction (compared to control): eggs on artificial diet topically treated, one week; for mortality at 0.05 ppm / mortality at 0.2 ppm / mortality at 0.8 ppm / mortality at 3 ppm: Heliothis virescens, topical, 168 h, read-out: Percent larvae mortality
# Method: 50-60 newly laid H. virescens eggs were placed on artificial diet in Petri dishes (5 cm diameter) and topically treated with 0.8 ml solution of compounds at the following rates: 3, 0.8, 0.2, 0.05. Petri dishes are maintained at 26±2° C., 50±10% r.h. in a dark room and assessment conducted one week after application (two replicates/treatment). Larvae mortality and effects on larvae growth were compared to the control.
# [3] = tested on: Plutella xylostella; assay: B10c: Insecticide Test for Plutella xylostella (diamond back moth); format: in vivo; details: sprayed Chinese cabbage leaf disks, L3 larvae
# Method: Chinese cabbage plants were sprayed with insecticide at 3, 0.8, 0.2 and 0.05 ppm. Five cm diameter leaf disks were cut and placed in a Petri dish containing 6 ml agar (0.8%). Five P. xylostella larvae L3 were introduced into Petri dishes and kept at 26±2° C., 50±10% r.h. in a dark room (two replicates per treatment). […]
# [4] = tested on: Diabrotica balteata; assay: Example B2: activity against Diabrotica balteata, sprayed maize seedlings; details: in Zea mays, 144 h, read-out: percentage reduction in the population (% activity)
Structure (SMILES),Death rate (%) after 4 days ([1]; 0.2 ppm) [%],Death rate (%) after 4 days ([1]; 0.8 ppm) [%],Death rate (%) after 4 days ([1]; 3 ppm) [%],Percent larvae showing growth reduction (compared to control) ([2]; 0.05 ppm) [%],Percent larvae showing growth reduction (compared to control) ([2]; 0.2 ppm) [%],Percent larvae showing growth reduction (compared to control) ([2]; 0.8 ppm) [%],Percent larvae showing growth reduction (compared to control) ([2]; 3 ppm) [%],mortality at 0.05 ppm [2] [%],mortality at 0.2 ppm [2] [%],mortality at 0.8 ppm [2] [%],mortality at 3 ppm [2] [%],Death rate (%) ([3]; 0.05 ppm),Death rate (%) ([3]; 0.2 ppm),Death rate (%) ([3]; 0.8 ppm),Death rate (%) ([3]; 3 ppm),inhibition at 400 ppm [4] [%]
"Cc1cccc(C(=O)NCC2CO2)c1NC(=O)c1cc(C(F)(F)F)nn1-c1ncccc1Cl (stereo not shown) [Comp. 566, reference compound]",0,0,0,0,0,0,0,0,0,0,0,0,10,5,25,
"Cc1cc(Cl)cc(C(=O)NCC2CCO2)c1NC(=O)c1cc(C(F)(F)F)nn1-c1ncccc1Cl (stereo not shown) [Compound P25, N-(4-chloro-2-methyl-6-[([oxetan-2-ylmethyl]amino)carbonyl]phenyl)-1-(3-chloro-2-pyridinyl)-3-(trifluoromethyl)-1H-pyrazole-5-carboxamide]",,,,,,,,,,,,,,,,> 80
Cc1cccc(C(=O)NCC2CC2)c1NC(=O)c1cc(C(F)(F)F)nn1-c1ncccc1Cl [Compound P41],20,80,100,0,45,100,100,0,0,0,0,0,0,80,60,
